Columns and labels:
Type in all cases: in vivo
Solanum nigrum (SOLNI) = experiment: B1 Post-Emergence Efficacy - Test 1; conditions: 1000 g/ha, after 13 days, five point scale
Experimental: (§1) Seeds of a variety of test species are sown in standard soil in pots:— Solanum nigrum (SOLNI), Amaranthus retoflexus (AMARE), Setaria faberi (SETFA), Alopecurus myosuroides (ALOMY), Echinochloa crus-galli (ECHCG), Ipomoea hederacea (IPOHE), Lolium perenne (LOLPE). After 8 days cultivation (post-emergence) under controlled conditions in a glasshouse (at 24/16° C., day/night; 14 hours light; 65% humidity), the plants are sprayed with an aqueous spray solution derived from the formulation of the technical active ingredient in acetone/water (50:50) solution containing 0.5% Tween 20 (polyoxyethylene sorbitan monolaurate, CAS RN 9005-64-5). Compounds are applied at 1000 g/ha. The test plants are then grown in a glasshouse under controlled conditions in a glasshouse (at 24/16° C., day/night; 14 hours light; 65% humidity) and watered twice daily. After 13 days, the test is evaluated for the percentage damage caused to the plant. The biological activities are assessed on a five point scale (5=80-100%; 4=60-79%; 3=40-59%; 2=20-39%; 1=0-19%). A blank value in the table is indicative that the compound was not tested on that species.

[1] = tested on: Amaranthus retoflexus (AMARE); experiment: B1 Post-Emergence Efficacy - Test 1; conditions: 1000 g/ha, after 13 days, five point scale
Experimental: as §1

[2] = tested on: Echinochloa crus-galli (ECHCG); experiment: B1 Post-Emergence Efficacy - Test 1; conditions: 1000 g/ha, after 13 days, five point scale
Experimental: as §1

Lolium perenne (LOLPE) = experiment: B1 Post-Emergence Efficacy - Test 1; conditions: 1000 g/ha, after 13 days, five point scale
Experimental: as §1

Setaria faberi (SETFA) [3] = experiment: B1 Post-Emergence Efficacy - Test 1; conditions: 1000 g/ha, after 13 days, five point scale
Experimental: as §1

[4] = tested on: Ipomoea hederacea (IPOHE); experiment: B1 Post-Emergence Efficacy - Test 1; conditions: 1000 g/ha, after 13 days, five point scale
Experimental: as §1

Zea mays (ZEAMX) = experiment: B2 Post-Emergence Efficacy - Test 2; conditions: 15 days after application; for Herbicidal activity ZEAMX: 0-100 scale; for Herbicidal activity on a 0-100 scale, ZEAMX: 0=no damage, 100=total kill
Experimental: (§2) Seeds of a variety of test species (see Table B1) were sown in standard soil in pots. After cultivation for 12 days (post-emergence) under controlled conditions in a glasshouse (at 24/18° C. or 20/16° C., at day/night; 16 hours light; 65% humidity), the plants were sprayed with an aqueous spray solution derived from the formulation of the technical active ingredient dissolved in IF50 (see Table B2 for composition) and adjuvant (Genapol X080) was added to the spray solution at a rate of 0.2% v/v.
(§3) After application, the test plants were grown in a glasshouse under controlled conditions (as above) and watered twice daily. Herbicidal activity was evaluated 15 days after application on a 0-100 scale. The results, where 0=no damage to test plant and 100=total kill of test plant are shown below in Tables 8 to 11.

[5] = tested on: Panicum miliaceum (PANMI); experiment: B2 Post-Emergence Efficacy - Test 2; conditions: 15 days after application, 0=no damage, 100=total kill
Experimental: as §2, §3

Eleisine indica (ELEIN) = experiment: B2 Post-Emergence Efficacy - Test 2; conditions: 15 days after application, 0=no damage, 100=total kill
Experimental: as §2, §3

Orysa sativa (ORYSA) = experiment: B2 Post-Emergence Efficacy - Test 2; conditions: 15 days after application; for Herbicidal activity ORYSA: 0-100 scale; for Herbicidal activity on a 0-100 scale, ORYSA: 0=no damage, 100=total kill
Experimental: as §2, §3

[6] = tested on: Echinochloa crus galli (ECHCG); experiment: B2 Post-Emergence Efficacy - Test 2; conditions: 15 days after application, 0=no damage, 100=total kill
Experimental: as §2, §3

Galium aparine (GALAP) = experiment: B2 Post-Emergence Efficacy - Test 2; conditions: 15 days after application, 0-100 scale
Experimental: as §2, §3

Setaria faberi (SETFA) [7] = experiment: B2 Post-Emergence Efficacy - Test 2; conditions: 15 days after application, 0=no damage, 100=total kill
Experimental: as §2, §3

Veronica persica (VERPE) = experiment: B2 Post-Emergence Efficacy - Test 2; conditions: 15 days after application, 0-100 scale
Experimental: as §2, §3

[8] = tested on: Chenopodium album (CHEAL); experiment: B2 Post-Emergence Efficacy - Test 2; conditions: 15 days after application, 0-100 scale
Experimental: as §2, §3

[9] = tested on: Euphorbia hetrophylla (EPHHL); experiment: B2 Post-Emergence Efficacy - Test 2; conditions: 15 days after application, 0-100 scale
Experimental: as §2, §3

Stellaria media (STEME) = experiment: B2 Post-Emergence Efficacy - Test 2; conditions: 15 days after application, 0-100 scale
Experimental: as §2, §3

Cc1nn(C)c(=O)c(-c2c(F)ccc(Cl)c2CCc2ccc(Cl)cc2)c1OC(=O)C(C)C [Compound 1.089, [5-[3-chloro-2-[2-(4-chlorophenyl)ethyl]-6-fluoro-phenyl]-1,3-dimethyl-6-oxo-pyridazin-4-yl] 2-methylpropanoate]
percentage damage caused to the plant, SOLNI (Solanum nigrum (SOLNI)): 5 (5=80-100%) | percentage damage caused to the plant, AMARE [1]: 5 (5=80-100%) | percentage damage caused to the plant, ECHCG [2]: 5 (5=80-100%) | percentage damage caused to the plant, LOLPE (Lolium perenne (LOLPE)): 5 (5=80-100%) | percentage damage caused to the plant, SETFA (Setaria faberi (SETFA) [3]): 5 (5=80-100%) | percentage damage caused to the plant, IPOHE [4]: 5 (5=80-100%) | Herbicidal activity ZEAMX (Zea mays (ZEAMX); 15 g/Ha): 0 | Herbicidal activity on a 0-100 scale, ZEAMX (Zea mays (ZEAMX); 15 g/Ha): 0 | Herbicidal activity ZEAMX (Zea mays (ZEAMX); 30 g/Ha): 20 | Herbicidal activity on a 0-100 scale, ZEAMX (Zea mays (ZEAMX); 30 g/Ha): 20 | Herbicidal activity ZEAMX (Zea mays (ZEAMX); 60 g/Ha): 30 | Herbicidal activity on a 0-100 scale, ZEAMX (Zea mays (ZEAMX); 60 g/Ha): 30 | Herbicidal activity ZEAMX (Zea mays (ZEAMX); 125 g/Ha): 30 | Herbicidal activity on a 0-100 scale, ZEAMX (Zea mays (ZEAMX); 125 g/Ha): 30 | Herbicidal activity ZEAMX (Zea mays (ZEAMX); 250 g/Ha): 90 | Herbicidal activity on a 0-100 scale, ZEAMX (Zea mays (ZEAMX); 250 g/Ha): 90 | Herbicidal activity ZEAMX (Zea mays (ZEAMX); 500 g/Ha): 100 | Herbicidal activity on a 0-100 scale, ZEAMX (Zea mays (ZEAMX); 500 g/Ha): 100 | Herbicidal activity on a 0-100 scale, PANMI ([5]; 15 g/Ha): 0 | Herbicidal activity on a 0-100 scale, PANMI ([5]; 30 g/Ha): 20 | Herbicidal activity on a 0-100 scale, PANMI ([5]; 60 g/Ha): 50 | Herbicidal activity on a 0-100 scale, PANMI ([5]; 125 g/Ha): 60 | Herbicidal activity on a 0-100 scale, PANMI ([5]; 250 g/Ha): 80 | Herbicidal activity on a 0-100 scale, PANMI ([5]; 500 g/Ha): 90 | Herbicidal activity on a 0-100 scale, ELEIN (Eleisine indica (ELEIN); 15 g/Ha): 0 | Herbicidal activity on a 0-100 scale, ELEIN (Eleisine indica (ELEIN); 30 g/Ha): 0 | Herbicidal activity on a 0-100 scale, ELEIN (Eleisine indica (ELEIN); 60 g/Ha): 70 | Herbicidal activity on a 0-100 scale, ELEIN (Eleisine indica (ELEIN); 125 g/Ha): 80 | Herbicidal activity on a 0-100 scale, ELEIN (Eleisine indica (ELEIN); 250 g/Ha): 90 | Herbicidal activity on a 0-100 scale, ELEIN (Eleisine indica (ELEIN); 500 g/Ha): 90 | Herbicidal activity ORYSA (Orysa sativa (ORYSA); 15 g/Ha): 0 | Herbicidal activity on a 0-100 scale, ORYSA (Orysa sativa (ORYSA); 15 g/Ha): 0 | Herbicidal activity ORYSA (Orysa sativa (ORYSA); 30 g/Ha): 0 | Herbicidal activity on a 0-100 scale, ORYSA (Orysa sativa (ORYSA); 30 g/Ha): 0 | Herbicidal activity ORYSA (Orysa sativa (ORYSA); 60 g/Ha): 0 | Herbicidal activity on a 0-100 scale, ORYSA (Orysa sativa (ORYSA); 60 g/Ha): 0 | Herbicidal activity ORYSA (Orysa sativa (ORYSA); 125 g/Ha): 10 | Herbicidal activity on a 0-100 scale, ORYSA (Orysa sativa (ORYSA); 125 g/Ha): 10 | Herbicidal activity ORYSA (Orysa sativa (ORYSA); 250 g/Ha): 20 | Herbicidal activity on a 0-100 scale, ORYSA (Orysa sativa (ORYSA); 250 g/Ha): 20 | Herbicidal activity ORYSA (Orysa sativa (ORYSA); 500 g/Ha): 50 | Herbicidal activity on a 0-100 scale, ORYSA (Orysa sativa (ORYSA); 500 g/Ha): 50 | Herbicidal activity on a 0-100 scale, ECHCG ([6]; 15 g/Ha): 80 | Herbicidal activity on a 0-100 scale, ECHCG ([6]; 30 g/Ha): 80 | Herbicidal activity on a 0-100 scale, ECHCG ([6]; 60 g/Ha): 80 | Herbicidal activity on a 0-100 scale, ECHCG ([6]; 125 g/Ha): 90 | Herbicidal activity on a 0-100 scale, ECHCG ([6]; 250 g/Ha): 90 | Herbicidal activity on a 0-100 scale, ECHCG ([6]; 500 g/Ha): 100 | Herbicidal activity GALAP (Galium aparine (GALAP); 15 g/Ha): 10 | Herbicidal activity GALAP (Galium aparine (GALAP); 30 g/Ha): 20 | Herbicidal activity GALAP (Galium aparine (GALAP); 125 g/Ha): 30 | Herbicidal activity GALAP (Galium aparine (GALAP); 250 g/Ha): 30 | Herbicidal activity GALAP (Galium aparine (GALAP); 500 g/Ha): 90 | Herbicidal activity on a 0-100 scale, SETFA (Setaria faberi (SETFA) [7]; 15 g/Ha): 0 | Herbicidal activity on a 0-100 scale, SETFA (Setaria faberi (SETFA) [7]; 30 g/Ha): 20 | Herbicidal activity on a 0-100 scale, SETFA (Setaria faberi (SETFA) [7]; 60 g/Ha): 30 | Herbicidal activity on a 0-100 scale, SETFA (Setaria faberi (SETFA) [7]; 125 g/Ha): 60 | Herbicidal activity on a 0-100 scale, SETFA (Setaria faberi (SETFA) [7]; 250 g/Ha): 60 | Herbicidal activity on a 0-100 scale, SETFA (Setaria faberi (SETFA) [7]; 500 g/Ha): 80 | Herbicidal activity VERPE (Veronica persica (VERPE); 15 g/Ha): 70 | Herbicidal activity VERPE (Veronica persica (VERPE); 30 g/Ha): 80 | Herbicidal activity VERPE (Veronica persica (VERPE); 60 g/Ha): 90 | Herbicidal activity VERPE (Veronica persica (VERPE); 125 g/Ha): 90 | Herbicidal activity VERPE (Veronica persica (VERPE); 250 g/Ha): 100 | Herbicidal activity VERPE (Veronica persica (VERPE); 500 g/Ha): 100 | Herbicidal activity CHEAL ([8]; 15 g/Ha): 80 | Herbicidal activity CHEAL ([8]; 30 g/Ha): 90 | Herbicidal activity CHEAL ([8]; 60 g/Ha): 90 | Herbicidal activity CHEAL ([8]; 125 g/Ha): 100 | Herbicidal activity CHEAL ([8]; 250 g/Ha): 100 | Herbicidal activity CHEAL ([8]; 500 g/Ha): 100 | Herbicidal activity EPHHL ([9]; 15 g/Ha): 80 | Herbicidal activity EPHHL ([9]; 30 g/Ha): 100 | Herbicidal activity EPHHL ([9]; 60 g/Ha): 100 | Herbicidal activity EPHHL ([9]; 125 g/Ha): 100 | Herbicidal activity EPHHL ([9]; 250 g/Ha): 100 | Herbicidal activity EPHHL ([9]; 500 g/Ha): 100 | Herbicidal activity STEME (Stellaria media (STEME); 15 g/Ha): 90 | Herbicidal activity STEME (Stellaria media (STEME); 30 g/Ha): 90 | Herbicidal activity STEME (Stellaria media (STEME); 60 g/Ha): 90 | Herbicidal activity STEME (Stellaria media (STEME); 125 g/Ha): 90 | Herbicidal activity STEME (Stellaria media (STEME); 250 g/Ha): 90 | Herbicidal activity STEME (Stellaria media (STEME); 500 g/Ha): 90

From patent publication US20230301300A1, “HERBICIDAL COMPOSITIONS” (SYNGENTA CROP PROTECTION AG, priority 2020, published 2023)
